# ChEMBL document CHEMBL3044856, “Molecular docking of glycogen synthase kinase3- inhibitor oleanolic acid and its wound-healing activity in rats” (Med Chem Res, 2013)
# The source made the active and inactive calls. The calls are words filed in the database; no cut-off is given here.
# Legend:
# [1] = test system: Mus musculus; test: Acute toxicity in Swiss albino Mus musculus (mouse) assessed as abnormal behavior up to 120 mg/kg, ip; format: organism-based; parameters: dose 120 mg/kg, route intraperitoneal; details: in vivo
# [2] = test system: Mus musculus; test: Wound-healing activity in Swiss albino Mus musculus (mouse) dead space wound model assessed as increase in tissue breaking strength at 3 mg/ml, ip measured on day 10 (reference value: 366.32 +/- 14.40 g); format: functional
# [3] = test system: Mus musculus; test: Wound-healing activity in Swiss albino Mus musculus (mouse) excision wound model assessed as closure of excision wound area at 3 mg/ml, ip measured on day 16 (reference value: 81.36 +/- 0.83%); format: functional
# [4] = test system: Mus musculus; test: Wound-healing activity in Swiss albino Mus musculus (mouse) excision wound model assessed as time required for complete epithelialization of excision wound at 3 mg/ml, ip (reference value: 22.75 +/- 0.13 days); format: functional
# [5] = test system: Mus musculus; test: Wound-healing activity in Swiss albino Mus musculus (mouse) dead space wound model assessed as increase in hydroxyproline content measured per 100 g of tissue at 3 mg/ml, ip measured on day 10 (reference value: 1411.15 +/- 6.26 ug); format: functional
# [6] = test system: Mus musculus; test: Wound-healing activity in Swiss albino Mus musculus (mouse) incision wound model assessed as increase in tensil strength of incision wound at 12 mg/kg/day, ip measured on day 10 (reference value: 356.13 +/- 14.55 g); format: functional; details: route intraperitoneal
# [7] = test system: Mus musculus; test: Acute toxicity in Swiss albino Mus musculus (mouse) assessed as mortality up to 120 mg/kg, ip; format: organism-based; parameters: dose 120 mg/kg, route intraperitoneal; details: in vivo
# [8] = test system: Mus musculus; test: Wound-healing activity in Swiss albino Mus musculus (mouse) excision wound model assessed as closure of excision wound area at 3 mg/ml, ip measured on day 12 (reference value: 66.04 +/- 0.94%); format: functional
# [9] = test system: Mus musculus; test: Wound-healing activity in Swiss albino Mus musculus (mouse) assessed as increase in collagenation in granulation tissue at 3 mg/ml, ip measured on day 10 by hematoxylin and eosin staining-based histological analysis relative to untreated control; format: functional, organism-based
# [10] = test system: Mus musculus; test: Wound-healing activity in Swiss albino Mus musculus (mouse) excision wound model assessed as closure of excision wound area at 3 mg/ml, ip measured on day 8 (reference value: 54.64 +/- 1.17%); format: functional
# [11] = test system: Mus musculus; test: Wound-healing activity in Swiss albino Mus musculus (mouse) dead space wound model assessed as increase in dry weight of granuloma tissue at 3 mg/ml, ip measured on day 10 (reference value: 11.52 +/- 0.9 mg); format: functional
# [12] = test system: Mus musculus; test: Wound-healing activity in Swiss albino Mus musculus (mouse) assessed as decrease in macrophage accumulation in granulation tissue at 3 mg/ml, ip measured on day 10 by hematoxylin and eosin staining-based histological analysis relative to untreated control; format: functional, organism-based
# [13] = test system: Mus musculus; test: Wound-healing activity in Swiss albino Mus musculus (mouse) dead space wound model assessed as increase in wet weight of granuloma tissue at 3 mg/ml, ip measured on day 10 (reference value: 79.56 +/- 1.05 mg); format: functional
# [14] = test system: Mus musculus; test: Wound-healing activity in Swiss albino Mus musculus (mouse) excision wound model assessed as closure of excision wound area at 3 mg/ml, ip measured on day 4 (reference value: 25.32 +/- 3.31%); format: functional
# [15] = test system: Mus musculus; test: Wound-healing activity in ip dosed Swiss albino Mus musculus (mouse) dead space wound model assessed as increase in hydroxyproline content measured per 100 g of tissue measured on day 10 (reference value: 1411.15 +/- 6.26 ug); format: functional
# [16] = test system: Mus musculus; test: Wound-healing activity in ip dosed Swiss albino Mus musculus (mouse) excision wound model assessed as closure of excision wound area measured on day 16 (reference value: 81.36 +/- 0.83%); format: functional
# [17] = test system: Mus musculus; test: Wound-healing activity in ip dosed Swiss albino Mus musculus (mouse) dead space wound model assessed as increase in tissue breaking strength measured on day 10 (reference value: 366.32 +/- 14.40 g); format: functional
# [18] = test system: Mus musculus; test: Wound-healing activity in ip dosed Swiss albino Mus musculus (mouse) excision wound model assessed as closure of excision wound area measured on day 12 (reference value: 66.04 +/- 0.94%); format: functional
# [19] = test system: Mus musculus; test: Wound-healing activity in ip dosed Swiss albino Mus musculus (mouse) assessed as increase in collagenation in granulation tissue measured on day 10 by hematoxylin and eosin staining-based histological analysis relative to untreated control; format: functional, organism-based
# [20] = test system: Mus musculus; test: Wound-healing activity in ip dosed Swiss albino Mus musculus (mouse) dead space wound model assessed as increase in dry weight of granuloma tissue measured on day 10 (reference value: 11.52 +/- 0.9 mg); format: functional
# [21] = test system: Mus musculus; test: Wound-healing activity in ip dosed Swiss albino Mus musculus (mouse) incision wound model assessed as increase in tensil strength of incision wound measured on day 10 (reference value: 356.13 +/- 14.55 g); format: functional
# [22] = test system: Mus musculus; test: Wound-healing activity in ip dosed Swiss albino Mus musculus (mouse) excision wound model assessed as closure of excision wound area measured on day 4 (reference value: 25.32 +/- 3.31%); format: functional
# [23] = test system: Mus musculus; test: Wound-healing activity in ip dosed Swiss albino Mus musculus (mouse) dead space wound model assessed as increase in wet weight of granuloma tissue measured on day 10 (reference value: 79.56 +/- 1.05 mg); format: functional
# [24] = test system: Mus musculus; test: Wound-healing activity in ip dosed Swiss albino Mus musculus (mouse) excision wound model assessed as closure of excision wound area measured on day 8 (reference value: 54.64 +/- 1.17%); format: functional
# [25] = test system: Mus musculus; test: Wound-healing activity in ip dosed Swiss albino Mus musculus (mouse) excision wound model assessed as time required for complete epithelialization of excision wound (reference value: 22.75 +/- 0.13 days); format: functional
# [26] = test system: Mus musculus; test: Wound-healing activity in ip dosed Swiss albino Mus musculus (mouse) assessed as decrease in macrophage accumulation in granulation tissue measured on day 10 by hematoxylin and eosin staining-based histological analysis relative to untreated control; format: functional, organism-based
structure (smiles),measurement,setting,value
CC1(C)CC[C@]2(C(=O)O)CC[C@]3(C)C(=CC[C@@H]4[C@@]5(C)CC[C@H](O)C(C)(C)[C@@H]5CC[C@]43C)[C@@H]2C1 [OLEANOLIC_ACID],Activity,[1],Non-toxic
same,Activity,[2],599.08 g
same,Activity,[3],96.82%
same,Time,[4],18.48 days
same,Activity,[5],2124.91 µg
same,Activity,[6],580.83 g
same,Activity,[7],Non-toxic
same,Activity,[8],86.06%
same,Activity,[9],Active
same,Activity,[10],79.11%
same,Activity,[11],26.25 mg
same,Activity,[12],Active
same,Activity,[13],127.12 mg
same,Activity,[14],36.13%
Nc1ccc(S(=O)(=O)Nc2nccs2)cc1 [SULFATHIAZOLE],Activity,[15],2427.33 µg
same,Activity,[16],96.94%
same,Activity,[17],617.39 g
same,Activity,[18],84.46%
same,Activity,[19],Active
same,Activity,[20],28.42 mg
same,Activity,[21],582.04 g
same,Activity,[22],39.94%
same,Activity,[23],131.4 mg
same,Activity,[24],74.54%
same,Time,[25],18.36 days
same,Activity,[26],Active
